From ChEMBL document CHEMBL5126559, “Insights into the structure-activity relationship of a type III secretion system inhibitor, aurodox” (Bioorg Med Chem Lett, 2022) come the findings set out here.

Values after ≈ are worked out from the molar mass of the structure shown.

Assay [1] in a line: Inhibition of bacterial type III secretion system in enteropathogenic Escherichia coli.
For another assay, the system named is Escherichia coli. The assay can be described thus: Antibacterial activity against enteropathogenic Escherichia coli. Type of assay: functional, organism-based.

Consider `C/C=C\C=C\[C@@H]1O[C@](O)([C@H](CC)C(=O)NC/C=C/C=C(\C)[C@@H](OC)[C@@H](C)[C@@H]2O[C@H](/C=C/C=C/C=C(\C)C(=O)c3c(O)ccn(C)c3=O)[C@H](O)[C@@H]2O)[C@H](O)[C@H](O)C1(C)C`, for which the IC50 – broadly, the concentration needed to halve the response being measured – in assay [1] stood at 1.42 µg/mL (≈ 1.75 µM); with Escherichia coli, 32.8 µg/mL (≈ 40.4 µM).
Turning to `CO[C@H](/C(C)=C/C=C/CN)[C@@H](C)[C@@H]1O[C@H](/C=C/C=C/C=C(\C)C(=O)c2c(O)ccn(C)c2=O)[C@H](O)[C@@H]1O`, the IC50 (in assay [1]; with Escherichia coli) was above 100 µg/mL in each case.
On to `C/C=C\C=C\[C@@H]1O[C@](O)([C@H](CC)C(=O)NC/C=C/C=C(\C)[C@@H](OC)[C@@H](C)[C@@H]2O[C@H](/C=C/C=C/C=C(\C)C(=O)c3c(O)ccn(C)c3=O)[C@@H]3OC(=O)O[C@@H]32)[C@@H]2OC(=O)O[C@@H]2C1(C)C`, for which the IC50 (in assay [1]; in the assay on Escherichia coli) was above 100 µg/mL throughout.
On to `C/C=C\C=C\[C@@H]1O[C@](O)([C@H](CC)C(=O)NC/C=C/C=C(\C)[C@@H](OC)[C@@H](C)[C@@H]2O[C@H](/C=C/C=C/C=C(\C)C(=O)c3c(OC)ccn(C)c3=O)[C@H](O)[C@@H]2O)[C@H](O)[C@H](O)C1(C)C`, for which the IC50 is 4.82 µg/mL (≈ 5.84 µM) in assay [1] and above 100 µg/mL with Escherichia coli.
As to `C/C=C\C=C\[C@@H]1O[C@](O)([C@H](CC)C(=O)NC/C=C/C=C(\C)[C@@H](OC)[C@@H](C)[C@@H]2O[C@H](/C=C/C=C/C=C(\C)C(=O)c3c([O-])ccn(C)c3=O)[C@H](O)[C@@H]2O)[C@H](O)[C@H](O)C1(C)C.[Na+]`, the IC50 in assay [1] came to 2.29 µg/mL; with Escherichia coli, 53.9 µg/mL.
`C/C=C\C=C\[C@@H]1O[C@]2(O)C(CC)C(=O)O[C@@H]2[C@H](O)C1(C)C` (some centres not stated): the IC50 (in assay [1]; with Escherichia coli) was above 100 µg/mL each time.
In the case of `C/C=C\C=C\[C@@H]1O[C@](O)([C@H](CC)C(=O)NC/C=C/C=C(\C)[C@@H](OC)[C@@H](C)[C@@H]2O[C@H](/C=C/C=C/C=C(\C)C(=O)c3c(O)ccn(C)c3=O)[C@H](O)[C@@H]2O)[C@H](O)[C@H](O)C1(C)C.[MgH2]`, the IC50 came out at 1.75 µg/mL in assay [1] and 30.6 µg/mL with Escherichia coli.
With `C/C=C\C=C\[C@@H]1O[C@](O)([C@H](CC)C(=O)NC/C=C/C=C(\C)[C@@H](OC)[C@@H](C)[C@@H]2O[C@H](/C=C/C=C/C=C(\C)C(=O)c3c(OC(=O)c4ccccc4)ccn(C)c3=O)[C@H](O)[C@@H]2O)[C@H](O)[C@H](O)C1(C)C`, the values for the IC50 (in assay [1]; in the assay on Escherichia coli) were 1.45 µg/mL (≈ 1.58 µM) and above 100 µg/mL, respectively.
For `C/C=C\C=C\[C@@H]1O[C@](O)([C@H](CC)C(=O)NC/C=C/C=C(\C)[C@@H](OC)[C@@H](C)[C@@H]2O[C@H](/C=C/C=C/C=C(\C)C(=O)c3c(OS(=O)(=O)c4ccc(C)cc4)ccn(C)c3=O)[C@H](O)[C@@H]2O)[C@H](O)[C@H](O)C1(C)C`, in that order: 19 µg/mL (≈ 19.7 µM) and above 100 µg/mL.
For `C/C=C\C=C\[C@@H]1O[C@](O)([C@H](CC)C(=O)NC/C=C/C=C(\C)[C@@H](OC)[C@@H](C)[C@@H]2O[C@H](/C=C/C=C/C=C(\C)C(=O)c3c(O)ccn(C)c3=O)[C@@H]3OC(=O)O[C@@H]32)[C@H](O)[C@H](O)C1(C)C`, the IC50 (in assay [1]; in the assay on Escherichia coli) was above 100 µg/mL throughout.
For the molecule `C/C=C\C=C\[C@@H]1O[C@](O)([C@H](CC)C(=O)NC/C=C/C=C(\C)[C@@H](OC)[C@@H](C)[C@@H]2O[C@H](/C=C/C=C/C=C(\C)C(=O)c3c(OC(=O)CC)ccn(C)c3=O)[C@H](O)[C@@H]2O)[C@H](O)[C@H](O)C1(C)C`, the IC50 stood at 1.19 µg/mL (≈ 1.37 µM) in assay [1] and 31.1 µg/mL (≈ 35.9 µM) in the assay with Escherichia coli.
The matching figures for `C=CCOc1ccn(C)c(=O)c1C(=O)/C(C)=C/C=C/C=C/[C@H]1O[C@@H]([C@H](C)[C@H](OC)/C(C)=C/C=C/CNC(=O)[C@@H](CC)[C@@]2(O)O[C@@H](/C=C/C=C\C)C(C)(C)[C@@H](O)[C@H]2O)[C@@H](O)[C@H]1O`: 4.16 µg/mL (≈ 4.89 µM) and above 100 µg/mL.
For `C/C=C\C=C\[C@@H]1O[C@](O)([C@H](CC)C(=O)NC/C=C/C=C(\C)[C@@H](OC)[C@@H](C)[C@@H]2O[C@H](/C=C/C=C/C=C(\C)C(=O)c3c(OC(C)=O)ccn(C)c3=O)[C@H](O)[C@@H]2O)[C@H](O)[C@H](O)C1(C)C`, in that order: 1.43 µg/mL (≈ 1.68 µM) and 36.1 µg/mL (≈ 42.3 µM).
Regarding `C/C=C\C=C\[C@@H]1O[C@](O)([C@H](CC)C(=O)NC/C=C/C=C(\C)[C@@H](OC)[C@@H](C)[C@@H]2O[C@H](/C=C/C=C/C=C(\C)C(=O)c3c(OS(C)(=O)=O)ccn(C)c3=O)[C@H](O)[C@@H]2O)[C@H](O)[C@H](O)C1(C)C`, the values for the IC50 (in assay [1]; in the assay with Escherichia coli) were 4.65 µg/mL (≈ 5.23 µM) and above 100 µg/mL, respectively.
Regarding `C/C=C\C=C\[C@@H]1O[C@](O)([C@H](CC)C(=O)NC/C=C/C=C(\C)[C@@H](OC)[C@@H](C)[C@@H]2O[C@H](/C=C/C=C/C=C(\C)C(=O)c3c([O-])ccn(C)c3=O)[C@H](O)[C@@H]2O)[C@H](O)[C@H](O)C1(C)C.[Li+]`, the IC50 stood at 2.52 µg/mL in assay [1] and 49.5 µg/mL in the assay on Escherichia coli.
On to `C/C=C\C=C\[C@@H]1O[C@](O)([C@H](CC)C(=O)NC/C=C/C=C(\C)[C@@H](OC)[C@@H](C)[C@@H]2O[C@H](/C=C/C=C/C=C(\C)C(=O)c3c(OCOC(N)=O)ccn(C)c3=O)[C@H](O)[C@@H]2O)[C@H](O)[C@H](O)C1(C)C`, for which the IC50 in assay [1] was 10.4 µg/mL (≈ 11.8 µM); in the assay on Escherichia coli, above 100 µg/mL.
